Holding throughout (type): binding
Test [1] deals with T1, PilB (CtPilB), type IV pilus assembly ATPase (Chloracidobacterium thermophilum, UniProt G2LDI3).
T1 construct: gene Cabther_A1696
In words: competitive displacement of fluorescent MANT-ATP.

The target of test [2] is T1, PilB (CtPilB), type IV pilus assembly ATPase. The test can be described thus: competitive displacement of fluorescent MANT-ATP (IC50 […]).
Test [3] shares this target. The test can be described thus: fluorescence enhancement titration of MANT-ATP with CtPilB.

Each structure is given as a SMILES string.

T1 sequence (G2LDI3 entry or part of it): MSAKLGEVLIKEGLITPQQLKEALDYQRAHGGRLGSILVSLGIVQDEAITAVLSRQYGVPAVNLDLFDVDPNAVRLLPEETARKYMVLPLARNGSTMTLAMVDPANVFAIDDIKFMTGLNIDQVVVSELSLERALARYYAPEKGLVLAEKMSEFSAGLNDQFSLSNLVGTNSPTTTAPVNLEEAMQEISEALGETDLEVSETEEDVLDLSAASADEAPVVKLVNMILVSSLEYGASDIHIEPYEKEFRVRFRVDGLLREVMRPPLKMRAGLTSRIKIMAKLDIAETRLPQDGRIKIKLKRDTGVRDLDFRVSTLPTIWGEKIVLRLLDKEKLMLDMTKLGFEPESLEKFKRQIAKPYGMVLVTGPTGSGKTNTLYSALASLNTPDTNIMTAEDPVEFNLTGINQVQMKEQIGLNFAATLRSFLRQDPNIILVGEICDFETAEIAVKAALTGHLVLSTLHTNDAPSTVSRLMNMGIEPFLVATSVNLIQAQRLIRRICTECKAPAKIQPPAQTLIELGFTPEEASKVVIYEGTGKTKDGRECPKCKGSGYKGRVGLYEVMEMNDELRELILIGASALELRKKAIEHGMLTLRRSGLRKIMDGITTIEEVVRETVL

With `Nc1ncnc2c1ncn2[C@@H]1O[C@H](COP(=O)(O)OP(=O)(O)O)[C@@H](O)[C@H]1O` [ADP], in test [1], the IC50 stood at 3070 nM. `Nc1ncnc2c1ncn2[C@@H]1O[C@H](COP(=O)(O)OP(=O)(O)OP(=O)(O)O)[C@@H](O)[C@H]1O` [ATP] displayed a Ki in test [2] of 2200 nM. With `CNc1ccccc1C(=O)O[C@H]1[C@@H](O)[C@H](n2cnc3c(N)ncnc32)O[C@@H]1CO[P@@](=O)(O)O[P@](=O)(O)OP(=O)(O)O` [MANT-ATP], the dissociation constant (Kd) in test [3] was determined as 290 ± 10 nM.
